Test results reported in patent publication US20060257400A1, “COMBINATION THERAPY” (Bristol-Myers Squibb Company, priority 2005, published 2006).

Test system: Human L2987 lung carcinomas
Assay: Antitumor testing, s.c. L2987 xenografts in nude mice
Format: in vivo
Settings: athymic nude mice, s.c. L2987 tumors established at 100-200 mm^3; Compound I 100 mg/Kg daily; Erbitux 1 mg per mouse every three days, 5 doses; combination given essentially simultaneously
Experimental: Animals. […] They were fed food and water ad libitum. All studies involving these animals were conducted in accordance with NIH (Bethesda, Md.) and Bristol Myers-Squibb animal care and use guidelines.
Tumors. […] All efficacy testing involved tumors implanted s.c. in nude mice.

## Cc1cc2c(F)c(Oc3ncnn4cc(OC[C@@H](C)OC(=O)[C@H](C)N)c(C)c34)ccc2[nH]1 [Compound I]
  delay of tumor growth to target tumor size of 500 mm^3 compared to vehicle treated control group: ten
